From ChEMBL document CHEMBL6109155, “Discovery of Phenylacylpiperidine as Novel sEH Inhibitors through Scaffold Hopping of Natural Stilbene” (J Med Chem, 2025)
Activity calls are given as the source filed them. The rule behind the calls is not given here.

Assays:
Mus musculus [1] = assay: Anti-inflammatory activity in BALB/c mouse model of carrageenan-induced paw edema at 20 mg/kg, po measured for 0.5 to 6 hrs; assay type: functional, organism-based; details: time 0.5-6 hrs
Mus musculus [2] = assay: Anti-inflammatory activity in BALB/c mouse model of carrageenan-induced paw edema assessed as inhibition of paw swelling at 20 mg/kg, po measured for 2 hrs relative to control; assay type: functional
Mus musculus [3] = assay: Anti-inflammatory activity in BALB/c mouse model of carrageenan-induced paw edema assessed as inhibition of paw swelling at 10 mg/kg, po measured up to 6 hrs relative to control; assay type: functional; details: Mus musculus, BALB/c
Mus musculus [4] = assay: Anti-inflammatory activity in BALB/c mouse model of carrageenan-induced paw edema assessed as inhibition of paw swelling at 1 mg/kg, po measured up to 6 hrs relative to control; assay type: functional
Mus musculus [5] = assay: Anti-inflammatory activity in BALB/c mouse model of carrageenan-induced paw edema assessed as inhibition of paw swelling at 20 mg/kg, po measured after 6 hrs relative to control; assay type: functional
Mus musculus [6] = assay: Anti-inflammatory activity in BALB/c mouse model of carrageenan-induced paw edema assessed as inhibition of paw swelling at 10 mg/kg, po measured after 6 hrs relative to control; assay type: functional
Mus musculus [7] = assay: Anti-inflammatory activity in BALB/c mouse model of carrageenan-induced paw edema assessed as inhibition of paw swelling at 1 mg/kg, po measured after 6 hrs relative to control; assay type: functional
Mus musculus [8] = assay: Anti-inflammatory activity in BALB/c mouse model of carrageenan-induced paw edema assessed as inhibition of paw swelling at 20 mg/kg, po measured up to 6 hrs relative to control; assay type: functional
Mus musculus [9] = assay: Anti-inflammatory activity in BALB/c mouse model of carrageenan-induced paw edema assessed as decrease in plasma 11,12-DHET levels at 10 mg/kg, po measured after 6 hrs relative to control; assay type: functional; parameters: scale not given: the % may be the effect or the level left
Rattus norvegicus [10] = assay: Anti-inflammatory activity in Sprague-Dawley rat model of CFA-induced rheumatoid arthritis assessed as improvement in joint cavity at 10 mg/kg, po administered daily measured after 19 days by H and E staining based analysis; assay type: functional, organism-based; details: time 19.0 day
RAW264.7 = assay: Anti-inflammatory activity in LPS-indeced mouse RAW264.7 cells assessed as reduction in TNF-alpha level at 10 uM preincubated for 1 hr followed by LPS addition measured after 24 hrs by ELISA; assay type: functional, cell-based; details: time 25.0 hrs
Rattus norvegicus [11] = assay: Anti-inflammatory activity in Sprague-Dawley rat model of CFA-induced rheumatoid arthritis assessed as decrease in paw swelling at 10 mg/kg, po administered daily measured after 7 days; assay type: functional, organism-based; details: time 7.0 day
Rattus norvegicus [12] = assay: Anti-inflammatory activity in Sprague-Dawley rat model of CFA-induced rheumatoid arthritis assessed as smooth cartilage surface at 10 mg/kg, po administered daily measured after 19 days by H and E staining based analysis; assay type: functional, organism-based; details: time 19.0 day
Rattus norvegicus [13] = assay: Anti-inflammatory activity in Sprague-Dawley rat model of CFA-induced rheumatoid arthritis assessed as […] in new blood vessel formation in synovial tissue at 10 mg/kg, po administered daily measured after 19 days by H and E staining based analysis; assay type: functional, organism-based; details: time 19.0 day
Rattus norvegicus [14] = assay: Anti-inflammatory activity in Sprague-Dawley rat model of CFA-induced rheumatoid arthritis assessed as decrease in lymphocytes infiltration in synovial tissue at 10 mg/kg, po administered daily measured after 19 days by H and E staining based analysis; assay type: functional, organism-based; details: time 19.0 day
Rattus norvegicus [15] = assay: Anti-inflammatory activity in Sprague-Dawley rat model of CFA-induced rheumatoid arthritis assessed as BS/BV value at 10 mg/kg, po administered daily measured after 19 days by micro-CT analysis (reference value: 17.147 %); assay type: functional; details: time 19 day
Rattus norvegicus [16] = assay: Anti-inflammatory activity in Sprague-Dawley rat model of CFA-induced rheumatoid arthritis assessed as BV/TV value at 10 mg/kg, po administered daily measured after 19 days by micro-CT analysis (reference value: 40.047 %); assay type: functional; details: time 19 day
Rattus norvegicus [17] = assay: Anti-inflammatory activity in Sprague-Dawley rat model of CFA-induced rheumatoid arthritis assessed as BS value at 10 mg/kg, po administered daily measured after 19 days by micro-CT analysis (reference value: 636.014 mm2); assay type: functional; details: time 19 day
Rattus norvegicus [18] = assay: Anti-inflammatory activity in Sprague-Dawley rat model of CFA-induced rheumatoid arthritis assessed as increase in plasma 14,15-EET level at 10 mg/kg, po administered daily measured after 19 days relative to control; assay type: functional; details: time 19 day
Rattus norvegicus [19] = assay: Anti-inflammatory activity in Sprague-Dawley rat model of CFA-induced rheumatoid arthritis assessed as increase in ratio of plasma 11,12-EET to DHET levels at 10 mg/kg, po administered daily measured after 19 days relative to control; assay type: functional; details: time 19 day
Rattus norvegicus [20] = assay: Anti-inflammatory activity in Sprague-Dawley rat model of CFA-induced rheumatoid arthritis assessed as increase in ratio of plasma 14,15-EET to DHET levels at 10 mg/kg, po administered daily measured after 19 days relative to control; assay type: functional; details: time 19 day
Mus musculus [21] = assay: Anti-inflammatory activity in CD-1 mouse model of cerulein-induced acute pancreatitis assessed as decrease in plasma IL-6 level at 10 mg/kg, ip drug administered at 30 mins and 2.5 hrs post-first cerulein injection and measured after 6 hrs post-first cerulein injection; assay type: functional, organism-based; details: time 3.5-5.5 hrs
Mus musculus [22] = assay: Anti-inflammatory activity in CD-1 mouse model of cerulein-induced acute pancreatitis assessed as increase in ratio of pancreatic EET/DHET level at 10 mg/kg, ip drug administered at 30 mins and 2.5 hrs post-first cerulein injection and measured after 6 hrs post-first cerulein injection (reference value: 23.5 to 41.7 %); assay type: functional; details: time 3.5-5.5 hrs
Cytochrome P450 2C9 = Cytochrome P450 2C9 (Homo sapiens, UniProt P11712); assay: Inhibition of CYP2C9 in human liver microsomes preincubated for 10 mins followed by NADPH addition measured after 3.5 mins by LC-MS/MS analysis; assay type: ADME, Microsome
Chain of Cytochrome P450 2C9 (P11712 whole entry): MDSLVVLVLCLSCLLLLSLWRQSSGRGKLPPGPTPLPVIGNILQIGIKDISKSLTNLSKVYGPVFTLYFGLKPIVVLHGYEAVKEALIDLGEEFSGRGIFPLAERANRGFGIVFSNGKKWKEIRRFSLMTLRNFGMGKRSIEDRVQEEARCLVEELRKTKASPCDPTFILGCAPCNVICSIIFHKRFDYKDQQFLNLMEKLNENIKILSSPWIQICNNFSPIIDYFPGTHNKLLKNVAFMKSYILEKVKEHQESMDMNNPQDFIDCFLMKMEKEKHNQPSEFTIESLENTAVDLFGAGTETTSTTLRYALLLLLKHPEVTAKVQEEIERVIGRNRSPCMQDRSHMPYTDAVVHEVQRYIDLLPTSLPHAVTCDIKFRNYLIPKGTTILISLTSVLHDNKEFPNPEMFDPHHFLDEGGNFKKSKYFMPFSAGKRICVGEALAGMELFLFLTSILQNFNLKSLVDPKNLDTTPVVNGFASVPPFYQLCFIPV

Cytochrome P450 2D6 = Cytochrome P450 2D6 (Homo sapiens, UniProt P10635); assay: Inhibition of CYP2D6 in human liver microsomes preincubated for 10 mins followed by NADPH addition measured after 3.5 mins by LC-MS/MS analysis; assay type: ADME, Microsome
Chain of Cytochrome P450 2D6 (P10635 whole entry): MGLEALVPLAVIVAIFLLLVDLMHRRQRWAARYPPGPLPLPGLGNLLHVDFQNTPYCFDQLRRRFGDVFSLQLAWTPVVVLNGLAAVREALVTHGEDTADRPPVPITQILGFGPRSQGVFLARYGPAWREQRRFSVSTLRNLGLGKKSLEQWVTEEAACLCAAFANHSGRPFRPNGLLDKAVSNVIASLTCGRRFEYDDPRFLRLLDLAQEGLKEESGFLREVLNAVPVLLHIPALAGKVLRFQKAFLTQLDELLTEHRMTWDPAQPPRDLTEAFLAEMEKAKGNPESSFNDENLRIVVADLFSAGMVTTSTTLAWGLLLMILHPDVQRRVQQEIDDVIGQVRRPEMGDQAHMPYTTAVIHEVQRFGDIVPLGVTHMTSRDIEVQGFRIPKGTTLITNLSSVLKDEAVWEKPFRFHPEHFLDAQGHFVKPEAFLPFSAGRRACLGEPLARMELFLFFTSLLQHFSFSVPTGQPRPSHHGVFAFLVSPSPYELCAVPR

Cytochrome P450 3A4 = Cytochrome P450 3A4 (Homo sapiens, UniProt P08684); assay: Inhibition of CYP3A4 in human liver microsomes preincubated for 10 mins followed by NADPH addition measured after 3.5 mins by LC-MS/MS analysis; assay type: ADME, Microsome
Chain of Cytochrome P450 3A4 (P08684 whole entry): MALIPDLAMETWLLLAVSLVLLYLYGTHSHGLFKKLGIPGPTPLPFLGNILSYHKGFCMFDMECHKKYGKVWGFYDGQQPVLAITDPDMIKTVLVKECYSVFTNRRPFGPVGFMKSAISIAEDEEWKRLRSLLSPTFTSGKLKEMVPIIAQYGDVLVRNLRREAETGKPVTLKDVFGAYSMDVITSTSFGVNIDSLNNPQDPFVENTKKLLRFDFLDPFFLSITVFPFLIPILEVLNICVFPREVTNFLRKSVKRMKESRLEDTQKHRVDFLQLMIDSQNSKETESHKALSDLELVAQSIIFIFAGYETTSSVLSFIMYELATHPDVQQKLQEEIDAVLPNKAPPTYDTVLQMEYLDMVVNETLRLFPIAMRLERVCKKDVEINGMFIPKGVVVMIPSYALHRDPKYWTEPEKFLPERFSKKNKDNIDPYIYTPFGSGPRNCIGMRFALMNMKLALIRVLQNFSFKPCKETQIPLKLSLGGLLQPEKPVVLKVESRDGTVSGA

[23] = Ratio of Cmax in liver to plasma in C57BL/6J mouse at 20 mg/kg, po measured for 24 hrs; assay type: ADME, organism-based; details: liver and plasma
[24] = Ratio of AUC (0 to 24 hrs) in liver to plasma in C57BL/6J mouse at 20 mg/kg, po measured for 24 hrs; assay type: ADME, organism-based; details: liver and plasma, read-out: Ratio AUC
[25] = AUC (0 to 24 hrs) in brain of C57BL/6J mouse at 20 mg/kg, po measured for 24 hrs; assay type: ADME, organism-based
[26] = Ratio of AUC (0 to 24 hrs) in brain to plasma in C57BL/6J mouse at 20 mg/kg, po measured for 24 hrs; assay type: ADME, organism-based; details: brain and plasma, read-out: Ratio AUC
[27] = Oral bioavailability in Sprague-Dawley rat at 20 mg/kg measured for 24 hrs; assay type: ADME, organism-based; details: in vivo
[28] = Tmax in Sprague-Dawley rat at 5 mg/kg, iv measured for 24 hrs; assay type: ADME, organism-based; details: in vivo
[29] = AUC (0 to 24 hrs) in Sprague-Dawley rat at 5 mg/kg, iv measured for 24 hrs; assay type: ADME, organism-based; details: in vivo

IC50 (Cytochrome P450 2C9): 48.2 µM
IC50 (Cytochrome P450 2D6): 46.8 µM
IC50 (Cytochrome P450 3A4): 22.9 µM
Kp at 24 h [23]: 6.71
Kp at 24 h [24]: 50.9
AUC(0-t) at 24 h [25]: 11 ng·h/mL
Kp at 24 h [26]: 0.02
bioavailability [27]: 8.3%
Tmax [28]: 4.8 min
AUC(0-t) at 24 h [29]: 2190 ng·h/mL
Structure (SMILES): COc1cc(CC(=O)N2CCC(NC(=O)NCc3ccc(OC(F)(F)F)cc3)CC2)cc(OC)c1
Activity (Mus musculus [1]): Active
inhibition in vivo at 20 mg/kg (Mus musculus [2]): 44.6%
inhibition in vivo at 10 mg/kg (Mus musculus [3]): 38.8%
inhibition in vivo at 1 mg/kg (Mus musculus [4]): 34%
inhibition in vivo at 20 mg/kg (Mus musculus [5]): 38.1%
inhibition in vivo at 10 mg/kg (Mus musculus [6]): 20.8%
inhibition in vivo at 1 mg/kg (Mus musculus [7]): 22%
inhibition in vivo at 20 mg/kg (Mus musculus [8]): 44.6%
Activity (Mus musculus [9]): 55.1%
Activity (Rattus norvegicus [10]): Active
Activity (RAW264.7): Active
Activity (Rattus norvegicus [11]): Active
Activity (Rattus norvegicus [12]): Active
Activity (Rattus norvegicus [13]): Active; Few Newly Formed Blood Vessels Was Observed
Activity (Rattus norvegicus [14]): Active; Small Lymphocytes Infiltration Was Observed
Activity (Rattus norvegicus [15]): 11.923%
Activity (Rattus norvegicus [16]): 62.73%
Activity (Rattus norvegicus [17]): 432.009 mm2
Activity (Rattus norvegicus [18]): 175%
Activity (Rattus norvegicus [19]): 111%
Activity (Rattus norvegicus [20]): 463%
Activity (Mus musculus [21]): Active
Activity (Mus musculus [22]): 311%
